From patent US12350250B2, “Aggrelytes for treating ocular conditions” (The Regents of the University of Colorado, a Body Corporate, priority 2022, dated 2025)

How the values were obtained:
human lenses = assay: Stiffness and axial strain of ex vivo human lenses (Example 10); conditions: 1 mM, 72 h; for lens stiffness (displacement) vs untreated controls: human lenses (42-68 years), loads of 500 mg and 1000 mg; for axial strain vs controls: human lenses, 500 mg and 1000 mg loads
Method: In this example, the lenses were dissected from the eyes of mice (C57BL/6J, 5-8 months old, Jackson Laboratories, Stock No. 000664, n=4-5) by a posterior approach and incubated without (“Control”) or with Aggrelyte-2 or Aggrelyte-2C (1 mM) for 24 hours in serum-free and phenol-red-free MEM (297 mOsm) at 37° C. Lens stiffness was measured as previously described in Baradia, H. et al., (2010) Exp. Eye Res. 91, 300-307. Briefly, the lens was placed on a flat platform with the anterior side facing up, and a load was applied to the top of the lens at 100 mg increments for mouse lenses and at 250 mg increments for human lenses. The displacement in the lens axial diameter (in μm or mm) was measured using MATLAB software developed by Dr. Adrian Glasser, UK, and plotted against the load applied. The displacement at a specific load was used to determine differences in lens stiffness between the untreated control and aggrelyte-treated lenses.
Freshly obtained human lenses (42-68 years old, n=10-12) were incubated with or without Aggrelyte-2 or Aggrelyte-2C (1 mM) for a total of 72 h in phenol red-free MEM with a change in media containing freshly dissolved aggrelytes every 24 h. One lens from each donor pair was used as the control, and the other was treated with aggrelyte. After incubation, the lens stiffness was measured as described above. Axial strain was also calculated based on the following formula: […]

human (60-62 years) lens = assay: Human lens transparency (separate study); conditions: data not shown
Text: The reduction in stiffness was similar at 400- and 500-mg loads (FIGS. 21C and 21D, respectively).

β-crystallin (βC) = assay: Crystallin levels in solubilized human lens proteins (Western blot), βC; type: biochemical; conditions: 500 μM, solubilized proteins of three human lenses
Method: The contents of crystalline proteins [αA-crystallin (αAC), αB-crystallin (αBC), β-crystallin (βC), and γ-crystallin (γC)] in the solubilized proteins of three human lenses treated with either Aggrelyte-2 or Aggrelyte-2C (500 μM) from Example 4 were determined by Western blot analysis as described for Example 5. Membranes were incubated with antibodies against αAC (1:14,000 dilution; Enzo Life Sciences, Catalog #ADI-SPA-221D), αBC (1:700,000 dilution; University of Iowa), βC (1:14,000 dilution; Santa Cruz Biotechnology, Catalog #sc-22745), and γC (1:7,000 dilution; Santa Cruz Biotechnology, Catalog #sc-22746). The secondary antibodies were HRP-conjugated anti-mouse IgG for αBC and HRP-conjugated […] (Cell Signaling Technology, Catalog #7074S) for αAC, βC, and γC. According to the supplier, the […] detects mostly βB1-crystallin and, to a lesser extent, βA1/3, βA2, βA4, βB2, and βB3-crystallin. The γC antibody reacts with γA, γB, γC, γD, γE, and γF-crystallin.

[1] = tested on: water-insoluble (WI) proteins from human lenses; assay: Solubilization of water-insoluble (WI) proteins from human lenses (BCA protein assay of supernatant); type: biochemical; conditions: 500 μM; for protein in the supernatant / solubilized protein, % of the initial WI protein / solubilized protein, % of the initial protein: ten human lenses (65 to 75 years)
Method: Human lenses (donor age: 55-75 years) were obtained from Saving Sight, Kansas City, MO, and Lions Eye Institute for Transplant & Research, Tampa, FL. The lenses were harvested within 36 hours postmortem, stored with (when used for culturing) or without minimum essential medium (MEM), and shipped to the inventors' laboratory on ice or frozen on dry ice. Lenses shipped on dry ice (used in the presently described and other solubility studies) were stored at −80° C. until use. Each frozen lens was thawed on ice and homogenized with 1.5 mL of PBS in a hand-held glass homogenizer. The homogenate was centrifuged at 20,000×g for 20 min at 4° C. The supernatant was discarded, and the pellet was suspended in 1 mL of homogenization buffer and centrifuged at 20,000×g for 20 min at 4° C. The resulting pellet was lyophilized and designated the water-insoluble (WI) fraction.
In the present example, the ability of aggrelytes to solubilize WI proteins from a human lens was investigated. Stock solutions (10 mM) of Aggrelyte-2 and Aggrelyte-2C were prepared in 50 mM phosphate buffer. The WI fraction (2 mg) was incubated in 50 mM sodium phosphate buffer (0.4 mL), pH 7.4, at 37° C. with aggrelyte at a final concentration of 0-2000 μM. The mixture was incubated at 37° C. with shaking for 24 or 48 hours after adding 0.002% sodium azide to prevent bacterial growth. After incubation, the samples were centrifuged at 20,000×g for 20 min at 4° C., and the supernatants were collected. Protein in the supernatant was measured using a BCA Protein Assay Kit from Thermo Scientific (Waltham, MA) using BSA as the standard.
WI fractions from ten aged human lenses (65 to 75 years) were prepared as in Example 3. The WI fractions (2 mg) were incubated in 50 mM sodium phosphate buffer (0.4 mL), pH 7.4, at 37° C. with 500 μM aggrelyte for 24 or 48 hours. Each sample was separately processed three times and analyzed (mean±S.D.).

[2] = tested on: acetyllysine (AcK)-bearing proteins in solubilized human lens WI proteins; assay: AcK-bearing proteins in solubilized human lens proteins (Western blot densitometry); type: biochemical; conditions: 500 μM, solubilized proteins of ten human lenses (65 to 75 years), vs Control
Text: Chemiluminescence was detected using an Enhanced Chemiluminescence Detection Kit (Thermo Scientific). Then the membrane was stained with Ponceau-S to visualize the proteins and normalize the detected AcK-bearing protein to the total protein load via densitometry.

[3] = tested on: protein thiols of solubilized human lens WI protein; assay: Protein thiol content in solubilized protein from WI protein of aged lenses; type: biochemical; conditions: 500 μM aggrelyte, lenses 58 to 69 years old; for thiol content: 10 μg protein, GSH standard
Method: Protein thiol content in the solubilized protein from WI protein from aged lenses (58 to 69 years old) was evaluated. Immediately after treatment with aggrelytes as described in the foregoing examples, 0.15 mL samples were filtered through 10 kDa cutoff centrifugal filters at 4° C. Centrifugal filtration was repeated twice by adding 0.4 mL of 50 mM N2-bubbled sodium phosphate buffer to the retentate each time. Ten micrograms of protein from the final retentate was used for thiol content estimation using a Thiol Quantification Assay Kit (Abcam, Cambridge, MA) using reduced GSH as the standard.

| SMILES | lens stiffness (displacement) vs untreated controls (human lenses) | axial strain vs controls (human lenses) | lens transparency compared to vehicle-treated lenses (human (60-62 years) lens) | levels of βC vs Controls (β-crystallin (βC)) | protein in the supernatant ([1]; 24-hour incubation) [µg/µL] | solubilized protein, % of the initial WI protein ([1]; 24-hour incubation) | solubilizing WI proteins, fold better than Control or Aggrelyte-2C ([1]; 24 and 48 hours, combined ten lenses) [fold] | protein in the supernatant ([1]; 48-hour incubation) [µg/µL] | solubilized protein, % of the initial protein ([1]; 48-hour incubation) | amount of AcK-bearing proteins (Western blot densitometry) [2] | thiol content [3] [µM] | thiol content, fold higher than in the untreated controls [3] [fold] | protein solubility, fold less than that of Aggrelyte-2 ([1]; 48 hours, human lens) [fold] | thiol content, fold increase over Aggrelyte-2-treated samples [3] [fold] |
| --- | --- | --- | --- | --- | --- | --- | --- | --- | --- | --- | --- | --- | --- | --- |
| COC(=O)[C@H](CSC(C)=O)NC(C)=O [Aggrelyte-2, N,S-diacetyl-L-cysteine methyl ester] | significantly (p<0.01) reduced lens stiffness | significantly (p<0.01) reduced the axial strain | did not reduce or otherwise change | slightly but not significantly higher | 0.97 to 1.30 | 20-26% | ~1.4 | 0.96 to 1.48 | 19-30% | significantly (p<0.001) increased | 0.3 to 0.7 | 1.9 | – | – |
| COC(=O)[C@H](CS)NC(C)=O [Aggrelyte-2C, N-acetyl-L-cysteine methyl ester] | did not demonstrate significant effects on displacement | did not have a significant effect | did not reduce or otherwise change | no effect | 0.72 to 0.97 | 14-19% | – | 0.68 to 1.12 | 14-22% | did not increase the AcK levels | 1.1 to 1.6 | 4.9 | ~1.4 | 2.6 |
